The values below come from patent US9216968B2, “Heterocyclic derivative and pharmaceutical drug” (NIPPON SHINYAKU CO., LTD., priority 2011, dated 2015).

Each structure is given as a SMILES string. Structures can show the parent of a compound that is named as a salt.

As a reminder, the IC50 is the midpoint of a concentration-inhibition curve.

The subject of one test is A549 cells. The test can be described thus: Inhibition of PGE2 production in A549 cell (IL-1β stimulated). In kind it is cell-based, human. The note with it: IL-1β 5 ng/well, PGE2 in culture medium. Put shortly:
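A549 cells preincubated 60 min with compound in RPMI/3% FBS (final DMSO 0.10), then stimulated with IL-1β (5 ng/well) for 24 h at 37 °C. PGE2 measured by HTRF and PGF2α by EIA in medium; IC50 from inhibition relative to stimulated minus unstimulated production.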

Another test deals with human mPGES-1 (Homo sapiens (Human), UniProt O14684). As to the kind of experiment: mPGES-1 inhibiting activity (microsome fractions, PGE2 by HTRF). The note with it: microsomes from CHO-K1 cells transfected with human mPGES-1; PGH2 1 μM, 4° C., 60 seconds; read-out: mPGES-1 Inhibition IC50. In kind it is biochemical. Put shortly:
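PGE2 formation read by HTRF after 60 s at 4 °C with 1 μM PGH2 substrate, following 20 min compound preincubation (1% DMSO) with human mPGES-1 microsomes from transfected CHO-K1 cells. Buffer: potassium phosphate, reduced glutathione, pH 7.4; IC50 from activity relative to enzyme-free blank.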
(In TR-FRET formats the signal depends on donor and acceptor labels being close together.)

human mPGES-1, sequence (O14684 whole entry): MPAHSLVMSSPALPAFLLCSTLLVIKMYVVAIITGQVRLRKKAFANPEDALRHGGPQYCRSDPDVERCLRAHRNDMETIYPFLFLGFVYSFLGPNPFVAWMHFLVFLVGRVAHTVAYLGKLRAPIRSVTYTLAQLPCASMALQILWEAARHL

On to `COCc1nc2c(C(=O)NCc3ccccc3)cc(NC(=O)c3ccccc3C(F)(F)F)cc2[nH]1` [Example 217, N-Benzyl-2-(methoxymethyl)-6-({[2-(trifluoromethyl)phenyl]carbonyl}amino)-1H-benzimidazole-4-carboxamide hydrochloride], for which the IC50 with A549 cells (Homo sapiens, A549, 24 h) stood at 317 nM; at human mPGES-1, 26.9 nM.

Consider `CCN(CC)CCNc1nc2c(C(=O)Nc3cccc(Cl)c3C)cc(NC(=O)c3ccccc3C(F)(F)F)cc2[nH]1` [Example 151, N-(3-Chloro-2-methylphenyl)-2-{[2-(diethylamino)ethyl]amino}-6-({[2-(trifluoromethyl)phenyl]carbonyl}amino)-1H-benzimidazole-4-carboxamide hydrochloride], for which the IC50 in the test with A549 cells (Homo sapiens, A549, 24 h) came out at 328 nM; on human mPGES-1, 11.6 nM.

In the case of `COC(C)(C)CNc1nc2c(C(=O)Nc3cccc(Cl)c3C)cc(NC(=O)c3ccccc3C(F)(F)F)cc2[nH]1` [Example 177, N-(3-Chloro-2-methylphenyl)-2-[(2-methoxy-2-methylpropyl)amino]-6-({[2-(trifluoromethyl)phenyl]carbonyl}amino)-1H-benz imidazole-4-carboxamide hydrochloride], the IC50 in the test on A549 cells (Homo sapiens, A549, 24 h) was 45.2 nM; at human mPGES-1, 8.3 nM.

For the molecule `Cc1c(Cl)cccc1NC(=O)c1cc(NC(=O)c2cc(Cl)ccc2Cl)cc2[nH]c(NCC(C)(C)CO)nc12` [Example 189, N-(3-Chloro-2-methylphenyl)-6-{[(2,5-dichlorophenyl)carbonyl]amino}-2-[(3-hydroxy-2,2-dimethylpropyl)amino]-1H-benzimidazole-4-carboxamide hydrochloride], the IC50 with A549 cells (Homo sapiens, A549, 24 h) stood at 24.5 nM; at human mPGES-1, 1.4 nM.

Regarding `Cn1cnc2c(C(=O)NCc3ccccc3C(F)(F)F)cc(NC(=O)c3ccccc3C(F)(F)F)cc21` [Example 48, 1-Methyl-N-[2-(trifluoromethyl)benzyl]-6-({[2-(trifluoromethyl)phenyl]carbonyl}amino)-1H-benzimidazole-4-carboxamide], the IC50 stood at 146 nM in the test with A549 cells (Homo sapiens, A549, 24 h) and 49.9 nM on human mPGES-1.

Consider `COCc1nc2c(C(=O)Nc3cccc(Cl)c3C)cc(NC(=O)c3cc(C)ccc3Cl)cc2[nH]1` [Example 108, N-(3-Chloro-2-methylphenyl)-6-{[(2-chloro-5-methylphenyl)carbonyl]amino}-2-(methoxymethyl)-1H-benzimidazole-4-carboxamide hydrochloride], for which the IC50 with A549 cells (Homo sapiens, A549, 24 h) worked out at 87.9 nM; at human mPGES-1, 11.5 nM.

Consider `Cc1ccc(NC(=O)c2cc(NC(=O)c3ccccc3C(F)(F)F)cc3[nH]c(N(C)C)nc23)cc1Cl` [Example 202, N-(3-Chloro-4-methylphenyl)-2-(dimethylamino)-6-({[2-(trifluoromethyl)phenyl]carbonyl}amino)-1H-benzimidazole-4-carboxamide hydrochloride], for which the IC50 in the test with A549 cells (Homo sapiens, A549, 24 h) was 5.9 nM; on human mPGES-1 it was 4.9 nM.

Turning to `COCc1nc2c(C(=O)NC3CCC(F)(F)CC3)cc(NC(=O)c3ccccc3C(F)(F)F)cc2[nH]1` [Example 26, N-(4,4-Difluorocyclohexyl)-2-(methoxymethyl)-6-({[2-(trifluoromethyl)phenyl]carbonyl}amino)-1H-benzimidazole-4-carboxamide hydrochloride], the IC50 is 872 nM in the test with A549 cells (Homo sapiens, A549, 24 h) and 172 nM at human mPGES-1.

For the molecule `COCc1nc2c(C(=O)Nc3cccc(Cl)c3C)cc(NC(=O)c3c(F)ccc(F)c3Cl)cc2[nH]1` [Example 101, 6-{[(2-Chloro-3,6-difluorophenyl)carbonyl]amino}-N-(3-chloro-2-methylphenyl)-2-(methoxymethyl)-1H-benzimidazole-4-carboxamide hydrochloride], the 50% inhibitory concentration (IC50) in the test with A549 cells (Homo sapiens, A549, 24 h) was 118 nM; at human mPGES-1, 77.8 nM.

For the molecule `Cc1c(Cl)cccc1NC(=O)c1cc(NC(=O)c2ccccc2C(F)(F)F)cc2[nH]c(N(CCO)CCO)nc12` [Example 144, 2-[Bis(2-hydroxyethyl)amino]-N-(3-chloro-2-methylphenyl)-6-({[2-(trifluoromethyl)phenyl]carbonyl}amino)-1H-benzimidazole-4-carboxamide hydrochloride], the IC50 is 2990 nM in the test with A549 cells (Homo sapiens, A549, 24 h) and 9.7 nM on human mPGES-1.

`COC(C)(C)CNc1nc2c(C(=O)Nc3cccc(Cl)c3C)cc(NC(=O)c3cc(Cl)ccc3Cl)cc2[nH]1` [Example 192, N-(3-Chloro-2-methylphenyl)-6-{[(2,5-dichlorophenyl)carbonyl]amino}-2-[(2-methoxy-2-methylpropyl)amino]-1H-benzimidazole-4-carboxamide hydrochloride]: the IC50 stood at 18.1 nM with A549 cells (Homo sapiens, A549, 24 h) and 9.9 nM on human mPGES-1.

With `Cc1c(Cl)cccc1NC(=O)c1cc(NC(=O)c2ccccc2C(F)(F)F)cc2[nH]c([C@H]3CCCO3)nc12` [Example 64, N-(3-Chloro-2-methylphenyl)-2-[(2R)-tetrahydrofuran-2-yl]-6-({[2-(trifluoromethyl)phenyl]carbonyl}amino)-1H-benzimidazole-4-carboxamide hydrochloride], the half-maximal inhibitory concentration (IC50) with A549 cells (24 hours, hydrochloride) was found to be 20.1 nM; on human mPGES-1 it was 2.3 nM.

In the case of `Cc1c(Cl)cccc1NC(=O)c1cc(NC(=O)c2ccccc2C(F)(F)F)cc2[nH]c(N3CC[C@H](O)C3)nc12` [Example 150, N-(3-Chloro-2-methylphenyl)-2-[(3S)-3-hydroxypyrrolidin-1-yl]-6-({[2-(trifluoromethyl)phenyl]carbonyl}amino)-1H-benzimidazole-4-carboxamide hydrochloride], the IC50 in the test on A549 cells (Homo sapiens, A549, 24 h) was found to be 376 nM; on human mPGES-1 it was 2.1 nM.

With `CCn1cnc2c(C(=O)Nc3cccc(Cl)c3C)cc(NC(=O)c3ccccc3C(F)(F)F)cc21` [Example 49, N-(3-Chloro-2-methylphenyl)-1-ethyl-6-({[2-(trifluoromethyl)phenyl]carbonyl}amino)-1H-benzimidazole-4-carboxamide], the IC50 stood at 375 nM in the test on A549 cells (Homo sapiens, A549, 24 h) and 100 nM on human mPGES-1.

Consider `Cc1nc2c(C(=O)NC3CCC3)cc(NC(=O)c3ccccc3C(F)(F)F)cc2[nH]1` [Example 16, N-Cyclobutyl-2-methyl-6-({[2-(trifluoromethyl)phenyl]carbonyl}amino)-1H-benzimidazole-4-carboxamide], for which the IC50 in the test on A549 cells (Homo sapiens, A549, 24 h) came out at 1300 nM; on human mPGES-1, 63.9 nM.

In the case of `CCOCc1nc2c(C(=O)Nc3cccc(Cl)c3C)cc(NC(=O)c3ccccc3C(F)(F)F)cc2[nH]1` [Example 79, N-(3-Chloro-2-methylphenyl)-2-(ethoxymethyl)-6-({[2-(trifluoromethyl)phenyl]carbonyl}amino)-1H-benzimidazole-4-carboxamide hydrochloride], the IC50 worked out at 285 nM in the test with A549 cells (Homo sapiens, A549, 24 h) and 15 nM on human mPGES-1.

Consider `COCc1nc2c(C(=O)Nc3cccc(Cl)c3C)cc(NC(=O)c3ccccc3C(F)(F)F)cc2[nH]1` [Example 11, N-(3-chloro-2-methylphenyl)-2-(methoxymethyl)-6-({[2-(trifluoromethyl)phenyl]carbonyl}amino)-1H-benzimidazole-4-carboxamide], for which the IC50 with A549 cells (Homo sapiens, A549, 24 h) came to 12.9 nM; on human mPGES-1, 6.6 nM.

Regarding `Cc1c(Cl)cccc1NC(=O)c1cc(NC(=O)c2ccccc2C(F)(F)F)cc2[nH]c(N(C)C)nc12` [Example 145, N-(3-Chloro-2-methylphenyl)-2-(dimethylamino)-6-({[2-(trifluoromethyl)phenyl]carbonyl}amino)-1H-benzimidazole-4-carboxamide hydrochloride], the IC50 in the test on A549 cells (Homo sapiens, A549, 24 h) was found to be 13 nM; at human mPGES-1 it was 1.6 nM.

In the case of `COCc1nc2c(C(=O)Nc3cccc(Cl)c3C)cc(NC(=O)c3cc(F)ccc3Cl)cc2[nH]1` [Example 94, 6-{[(2-Chloro-5-fluorophenyl)carbonyl]amino}-N-(3-chloro-2-methylphenyl)-2-(methoxymethyl)-1H-benzimidazole-4-carboxamide hydrochloride], the IC50 in the test with A549 cells (Homo sapiens, A549, 24 h) is 182 nM; at human mPGES-1 it was 9.1 nM.

For `CCOCc1ccc(Cl)c(C(=O)Nc2cc(C(=O)Nc3cccc(Cl)c3C)c3nc(COC)[nH]c3c2)c1` [Example 120, 6-({[2-Chloro-5-(ethoxymethyl)phenyl]carbonyl}amino)-N-(3-chloro-2-methylphenyl)-2-(methoxymethyl)-1H-benzimidazole-4-carboxamide], the IC50 in the test with A549 cells (Homo sapiens, A549, 24 h) is 513 nM; on human mPGES-1 it was 57.5 nM.

In the case of `Cc1c(Cl)cccc1NC(=O)c1cc(NC(=O)c2ccccc2C(F)(F)F)cc2[nH]c(NCCOC(C)(C)C)nc12` [Example 176, 2-[(2-tert-Butoxyethyl)amino]-N-(3-chloro-2-methylphenyl)-6-({[2-(trifluoromethyl)phenyl]carbonyl}amino)-1H-benzimidazole-4-carboxamide hydrochloride], the IC50 with A549 cells (Homo sapiens, A549, 24 h) was found to be 138 nM; at human mPGES-1, 0.3 nM.

Turning to `COCCCNc1nc2c(C(=O)Nc3cccc(Cl)c3C)cc(NC(=O)c3ccccc3C(F)(F)F)cc2[nH]1` [Example 174, N-(3-Chloro-2-methylphenyl)-2-[(3-methoxypropyl)amino]-6-({[2-(trifluoromethyl)phenyl]carbonyl}amino)-1H-benzimidazole-4-carboxamide hydrochloride], the IC50 in the test with A549 cells (Homo sapiens, A549, 24 h) was determined as 117 nM; at human mPGES-1, 2 nM.

In the case of `Cc1nc2c(C(=O)Nc3cccc(Cl)c3C)cc(NC(=O)c3ccccc3C(F)(F)F)cc2[nH]1` [Example 14, N-(3-Chloro-2-methylphenyl)-2-methyl-6-({[2-(trifluoromethyl)phenyl]carbonyl}amino)-1H-benzimidazole-4-carboxamide hydrochloride], the IC50 is 15.2 nM in the test with A549 cells (Homo sapiens, A549, 24 h) and 3.8 nM at human mPGES-1.
